Data published in article PMC10999543, “Identification of kinase modulators as host-directed therapeutics against intracellular methicillin-resistant Staphylococcus aureus” (Frontiers in Cellular and Infection Microbiology, 2024).

Columns and labels:
[1] = system: MRSA; format: in vivo, zebrafish; settings: for survival rate of MRSA-infected zebrafish embryos: 10 µM, after 4 days, 1000 CFUs MRSA, DMSO 57.5%, uninfected 93.8%
Experimental: Zebrafish embryos were dechorionated at 24 hpf. The OD600 of a log-phase MRSA culture was centrifuged and dissolved in PBS with 2% polyvinylpyrrolidone (Merck) to improve homogeneity of the bacterial suspension. The OD600 was measured and the bacterial suspension was diluted to a final concentration of 10^9 CFUs/ml accordingly. The preparation of injection needles and the equipment used for microinjections have been previously described ([Benard et al., 2012]). At 28 hpf, zebrafish embryos were anesthetized in 200 µg/ml buffered ethyl 3-aminobenzoic acid (Tricaine, Sigma-Aldrich) and injected in the blood island with a bacterial dose of 1 nl containing 1000 CFUs of MRSA. Infected embryos were collected and randomly distributed over 6-wells plates with ten embryos/well. At 30 hpf, the infected embryos were given kinase inhibitors or DMSO as negative control. Survival of the embryos was scored at 48, 72, 96 and 120 hpf.

[2] = system: intracellular MRSA in A549 cells; assay: Gentamicin protection assay with CFU count in MRSA-infected A549 cells; format: cell-based, Staphylococcus aureus; settings: 10 µM, n=7
Experimental: (§1) The cells were resuspended in cell culture medium without antibiotics, seeded with 10,000 cells/well into Costar flat-bottom 96-well plates (Corning, Amsterdam, the Netherlands), and were incubated overnight at 37°C/5% CO2. The next day, the bacteria were centrifuged at ≥1800 g for 15 min and resuspended in cold PBS + 5 mM ethylenediaminetetraacetic acid (EDTA). The number of CFUs present in the bacterial suspension was estimated from the optical density at 600 nm (OD600) by assuming 8x10^8 CFUs to be present in a bacterial suspension with OD600 = 1, based on prior titrations. The bacterial suspension was diluted in cell culture medium without antibiotics and added to the cells. Accuracy of the multiplicity of infection (MOI) was validated by plating serial dilutions of the MRSA inoculums on Difco TS agar plates (BD Biosciences). The calculated mean MOI throughout all experiments was 6.8 ± 4.6 (mean ± SD). Infected cells were centrifuged for 3 min at 150 g and incubated for 1 hour at 37°C/5% CO2. Next, the cells were incubated with fresh cell culture medium supplemented with 30 µg/ml gentamicin sulphate (Lonza BioWhittaker, Basel, Switzerland) for 15 min at 37°C/5% CO2 to kill residual extracellular bacteria. […]

[3] = system: MCF7 cells; format: cell-based, human; settings: 10 µM
Experimental: (§2) Before harvesting or lysing the cells of the intracellular infection assays, the supernatant from the cells was collected to quantify LDH release by the cells using the LDH cytotoxicity detection kit (Roche, Merck, Darmstadt, Germany) according to the manufacturer’s instructions. Triton X-100 results in maximum LDH release by permeabilizing the cells and was used as positive control. Quantification was performed with the EnVision plate reader.

[4] = system: intracellular MRSA in PMA-differentiated THP-1 cells; assay: Gentamicin protection assay with CFU count in MRSA-infected PMA-differentiated THP-1 cells; format: cell-based, Staphylococcus aureus; settings: 10 µM, n=6
Experimental: as §1

[5] = system: planktonic MRSA cultures; assay: Bacterial growth assay in cell-free planktonic MRSA cultures (OD600); format: cell-based, Staphylococcus aureus; settings: Supplementary Figure S5
Experimental: […] The absorbance was measured using an EnVision plate reader (PerkinElmer). The plates were incubated at 37°C overnight and the absorbance was measured again the next day. Real-time measurement of bioluminescence by the MRSA-lux strain was performed in a white flat-bottom 96-wells plate using a SpectraMax i3x plate reader and an integration time set at 9000 ms.

[6] = system: A549 cells; format: cell-based, human; settings: 10 µM
Experimental: as §2

[7] = system: AMPK; design: method as in Elkins et al., 2016; settings: ref Elkins et al., 2016; cited from earlier work
[8] = system: AMPK; assay: Phosphorylation of AMPK at Thr172 by western blot; format: cell-based, human; settings: MRSA-infected HeLa cells
Experimental: HeLa cells were seeded with 100,000 cells/well in 24-wells plates. In short, the cells were lysed in EBSB buffer (10% v/v glycerol, 3% SDS, 100 mM Tris-HCl, pH 6.8) supplemented with one tablet of cOmplete EDTA-free protease inhibitor cocktail (Sigma-Aldrich) and proteins were denaturated at 95°C for 5 min. Protein concentrations were determined using a Pierce™ BCA protein assay kit (Thermo Fisher Scientific). Samples were diluted in Laemmli sample buffer and loaded on a 15-well 4–20% Mini-PROTEAN® TGX™ Precast Protein Gel for electrophoresis (both from Bio-Rad, Hercules, CA, USA). […] Membranes were blocked for 1h in PBS supplemented with 5% w/v non-fat dry milk. Next, the membranes were cut and each protein was separately stained with primary antibodies against actin and LC3B in PBS supplemented with 5% w/v non-fat dry milk, or against AMPKα and AMPKα-pThr172 in PBS supplemented with 5% BSA (antibodies listed in Supplementary Table S1 ). Membranes were stained with secondary antibodies in PBS supplemented with 5% w/v non-fat dry milk. After each staining, membranes were washed four times in PBS + 0.1% Tween20. Prior to revelation, the membranes were incubated for 10 min in enhanced chemiluminescence (ECL) Prime Western Blotting System reagent (GE Healthcare, Hoevelaken, The Netherlands). […] Protein bands were quantified using Fiji software ([Schindelin et al., 2012]).

[9] = system: other strains of S. aureus; assay: CFU count in HeLa cells infected with other strains of S. aureus; format: cell-based, Staphylococcus aureus; settings: Supplementary Figure S8A
Experimental: as §1

[10] = system: EGFR; design: method as in Elkins et al., 2016; settings: PKIS1, Caliper assay, ref Elkins et al., 2016; cited from earlier work
[11] = system: HER2; design: method as in Elkins et al., 2016; settings: PKIS1, Caliper assay, ref Elkins et al., 2016; cited from earlier work

## CC(C)c1nc(-c2cccc(NS(=O)(=O)c3c(F)cccc3F)c2F)c(-c2ccnc(Nc3ccc(N4CCOCC4)nc3)n2)s1 [GSK2008607A]
[1]; 1 µM
  toxicity in MRSA-infected zebrafish embryos: severe compound-related toxicity
[2]
  activity on bacterial burden (CFU): not active
[3]
  cell viability of MRSA-infected cells (LDH-release): significantly improved the overall survival
[4]
  effect on CFU counts: reductions in CFU counts

## COc1ccc2[nH]c3c4[nH]c5ccc(OC)cc5c4c4c(c3c2c1)C(=O)NC4=O [GW296115X]
[5]; planktonic cultures
  direct antibiotic effects against MRSA: not the case
[1]
  survival rate of MRSA-infected zebrafish embryos: 77.5%
[6]
  cell viability of MRSA-infected cells (LDH-release): rescued the loss of viability
[7]
  action on AMPK in a biochemical assay: AMPK inhibitor
[8]
  AMPK phosphorylation at Thr172: significantly increased AMPK phosphorylation at Thr172
[9]
  activity against other strains of S. aureus (CFU): active

## O=S(=O)(CCNCc1ccc(-c2ccc3ncnc(Nc4ccc(OCc5cccc(F)c5)c(Cl)c4)c3c2)o1)c1ccccc1 [GW633459A]
[10]
  % inhibition at 1 µM EGFR: 83%
[5]; up to 100 µM concentration
  effect on planktonic MRSA growth (direct antibiotic effect): not observe any direct antibacterial effects
[1]
  survival rate of MRSA-infected zebrafish embryos: 67.5%
[2]
  activity on bacterial burden (CFU): not active
[11]
  % inhibition at 1 µM HER2: 60%
[4]
  effect on CFU counts: reductions in CFU counts
